We go through six molecules from article PMC7546081, “A Kunitz-type peptide from Dendroaspis polylepis venom as a simultaneous inhibitor of serine and cysteine proteases” (The Journal of Venomous Animals and Toxins Including …, 2020).

Series [1] addresses T1, elastase-1 (Sus scrofa, UniProt P00772).
T1 construct: purchased Sigma-Aldrich
In words: Kinetic characterization of elastase-1 inhibition (Michaelis-Menten, Dixon plot). It counts as biochemical. The following applies: for Elastase inhibition: data not shown. As to the method: To determine the inhibition constant (Ki ) of the peptide, firstly the Michaelis-Menten constant (Km ) for the Abz-FRSSRQ-EDDnp hydrolysis by elastase-1 was obtained. For this, the concentrations of 2.5 µM, 5.0 µM, 10.0 µM, 15.0 µM, 25.0 µM and 50.0 µM of the substrate were used, in Tris 50 mM, NaCl 50 mM pH 8.0. Initial rates were determined at an enzyme concentration (100 ng) that would hydrolyze less than 10% of the substrate. The kinetic parameters (Km and Vmax ) were calculated by Michaelis-Menten equation using the Grafit 5 software (Erithacus Software, West Sussex, UK), as previously described. All experiments were performed in duplicate.
The Kunitz-type peptide quantification was determined by the BCA method using insulin as standard (5 µg/µL, 10 µg/µL, 25 µg/µL, 50 µg/µL e 100 µg/µL). To determine the mechanism of action of the Kunitz-type inhibitor, two concentrations of Abz-FRSSRQ-EDDnp, 6.8 µM and 3.4 µM, and two concentrations of the purified peptide, 0.63 µM and 0.94 µM, were utilized. For each substrate concentration it was made a control test (absence of the peptide). The assays were performed in duplicate and during all experiment the consumption of substrate was maintained under 10%. The reactions were monitored in the fluorimeter, as described above, and were analyzed in the Grafit 5 software (Erithacus Software, West Sussex, UK). The mechanism and the inhibition constants were determined through the Dixon plot (1/V x [I]) equation [20]. The plot was made in the software GraphPad Prism 5.

The target of series [2] is T1, elastase-1. The series is described as follows: Stability test of peptides against hydrolysis by elastase-1 (RP-HPLC). It counts as in vitro ADME. The following applies: data not shown; for Stability against hydrolysis by elastase-1: peptide 50 mM (so in the source), elastase-1 300 ng, Tris 50 mM, NaCl 50 mM pH 8.0, 37 °C, 4 hours and overnight, C18 RP-HPLC, UV 214 nm, duplicate. As to the method:
Samples containing only the synthetic peptides were used as negative control. After incubation, samples were analyzed, in duplicate by reverse phase chromatography on HPLC, using a Shim-pack C-18 column in the same conditions described above.

For a further series, the system named is trypsin. The series is described as follows: Trypsin inhibition. It counts as biochemical. Conditions: data not shown.
In a further series the test system is chymotrypsin. In words: Chymotrypsin inhibition. The series is classed as biochemical. Conditions: data not shown.
Another series relates to potassium channel. Conditions: read-out: Potassium channel blocker activity IC50; cited from earlier work.
Series [3] addresses T2, recombinant human cathepsin L (Homo sapiens, UniProt P07711).
T2 construct: purchased R&D systems
In words: Stability test of peptides against hydrolysis by cathepsin L (RP-HPLC). The series is classed as in vitro ADME. The following applies: cathepsin L 10 ng, NaCl 200 mM, EDTA 5 mM, DTT 6.25 mM pH 5.5; 37 °C; 4 hours and overnight (16 hours); C18 RP-HPLC, UV 214 nm; duplicate; data not shown. On the procedure: The synthetic peptides PEP1 and PEP2 (50 mM) were incubated with elastase-1 (300 ng), in Tris 50 mM, NaCl 50 mM pH 8.0 buffer, and cathepsin L (10 ng), in 50 mM, NaCl 200 mM, EDTA 5 mM, DTT 6.25 mM pH 5.5 buffer, at 37 °C in two different time intervals, 4 hours and overnight. Samples containing only the synthetic peptides were used as negative control. After incubation, samples were analyzed, in duplicate by reverse phase chromatography on HPLC, using a Shim-pack C-18 column in the same conditions described above.
Target sequence in this assay (P07711 114-333): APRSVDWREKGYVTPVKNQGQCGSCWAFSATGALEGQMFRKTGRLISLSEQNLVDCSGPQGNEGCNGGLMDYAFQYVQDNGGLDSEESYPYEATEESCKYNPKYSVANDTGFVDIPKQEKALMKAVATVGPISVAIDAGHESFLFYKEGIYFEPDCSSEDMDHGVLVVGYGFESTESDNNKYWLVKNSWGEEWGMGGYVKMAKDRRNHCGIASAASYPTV

Series [4] addresses T2, recombinant human cathepsin L. In words: Kinetic characterization of cathepsin L inhibition (Michaelis-Menten, Dixon plot). The series is classed as biochemical. On the procedure:
To obtain the Michaelis-Menten constant (Km ) of the Z-FR-MCA hydrolysis by cathepsin L (1 ng), 1 µM, 2.5 µM, 5.0 µM, 7.5 µM, 12.5 µM, 15 µM, 20 µM concentrations of Z-FR-MCA substrate were tested in 50 mM, NaCl 200 mM, EDTA 5 mM, DTT 6.25 mM pH 5.5 buffer (final volume of 100 µL).The reactions were continuously monitored (fluorescence at λEM 480 nm and λEX 360 nm) in a fluorimeter (425-301 Hidex, Finland), as described. The maximum speed (Vmax ) and the Km were obtained in the Grafit 5 software. All experiments were performed in duplicate. To determine the mechanism of inhibition and the inhibition constant (Ki ) of inhibitor PEP2, two concentrations of the Z-FR-MCA, 5.2 µM (2 Km ) and 7.8 (3 Km ), and three concentrations of the inhibitor PEP2, 1 µM, 2.5 µM and 5 µM, were used. Samples without PEP2 for each substrate concentration were utilized. The experiments were carried out in duplicates and the consumption of the substrate was maintained under 10%. The results were analyzed in the Grafit 5 software. The mechanism and the inhibition constants were determined through the Dixon plot (1/V x [I]) equation [20], using the software GraphPad Prism 5.

The target in series [5] is T3, pancreatic elastase (EC 3.4.21.36) (UniProt P00772 27-266).
T3 construct: also called elastase-1; source: bought: Sigma-Aldrich
T3 sequence (P00772 27-266): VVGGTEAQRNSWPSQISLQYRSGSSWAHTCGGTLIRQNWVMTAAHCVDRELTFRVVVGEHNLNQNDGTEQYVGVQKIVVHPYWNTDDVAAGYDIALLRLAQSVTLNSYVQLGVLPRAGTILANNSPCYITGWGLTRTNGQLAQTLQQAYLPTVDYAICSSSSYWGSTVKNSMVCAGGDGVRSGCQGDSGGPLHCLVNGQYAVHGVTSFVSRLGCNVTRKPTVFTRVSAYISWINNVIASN
In words: enzyme inhibition kinetics (fluorimetric, Dixon plot); elastase-1 (100 ng) with the FRET substrate Abz-FRSSRQ-EDDnp at 3.4 and 6.8 µM, purified peptide at 0.63 and 0.94 µM; Tris 50 mM, NaCl 50 mM, pH 8.0, 37 °C; duplicates; mechanism found uncompetitive. Conditions: both partners purified.

Where two headings read alike, the source gives them in different places. Bridge positions count the residues as written; N and C are the ends. Square brackets hold non-standard residues; d marks the D form. Peptide text beside a SMILES is read from it. * marks the point of attachment. EDDnp = O=[N+]([O-])c1ccc(NCCN*)c([N+](=O)[O-])c1; AMC = Cc1cc(=O)oc2cc(N*)ccc12; 2Abz = Nc1ccccc1C(=O)O; Cbz = O=C(OCc1ccccc1)*

T1 sequence (P00772 27-266): as above

The term Km denotes the substrate concentration at which the rate is half of its maximum. Take `N=C(N)NCCC[C@H](NC(=O)[C@H](Cc1ccccc1)NC(=O)c1ccccc1N)C(=O)N[C@@H](CO)C(=O)N[C@@H](CO)C(=O)N[C@@H](CCCNC(=N)N)C(=O)N[C@@H](CCC(N)=O)C(=O)NCCNc1ccc([N+](=O)[O-])cc1[N+](=O)[O-]` [Abz-FRSSRQ-EDDnp, reference compound] (H-[2Abz]FRSSRQ-EDDnp): the Km stood at 10.6 µM at elastase-1 [1] (Michaelis-Menten fit, Std. Error 2.2721 in its own column, read-out: Km, fit parameter value (Additional file 4A), elastase-1) and 10.7 µM on elastase-1 [1] (substrate 2.5-50.0 µM, elastase-1 100 ng, Tris 50 mM, NaCl 50 mM pH 8.0, Grafit 5, duplicate, read-out: Michaelis-Menten constant (Km) of substrate cleavage by elastase-1).
One may read the IC50 as the point on the concentration scale where inhibition reaches its midpoint. With “Kunitz-type serine protease inhibitor homolog dendrotoxin I (QPLRKLCILHRNPGRCYQKIPAFYYNQKKKQCEGFTWSGCGGNSNRFKTIEECRRTCIRK) [Kunitz-type peptide]”, in the series with elastase-1 [1] (Dixon plot (1/V versus [I]), parallel lines), the “Mechanism of inhibition of elastase-1” value is “uncompetitive inhibitor”. The Elastase inhibition result with elastase-1 [1] (peptide 1.26 µM) and in the series with elastase-1 [1] (peptide 3.52 µM) was “above 70%” each time. Besides, the “Stability on incubation with elastase-1 (substrate or not)” value with elastase-1 [2] (overnight incubation with elastase-1) was “not an elastase-1 substrate”. Moreover, the Inhibition of trypsin entry with trypsin is recorded as “no other serine protease inhibitions”. For the same molecule, the Inhibition of chymotrypsin result in the series on chymotrypsin is reported as “no other serine protease inhibitions”. Moreover, the IC50 in the series with potassium channel was 0.13 to 50 nM.
For the molecule `C[C@@H](O)[C@H](NC(=O)[C@H](Cc1ccccc1)NC(=O)CNC(=O)[C@H](CCC(=O)O)NC(=O)[C@H](CS)NC(=O)[C@H](CCC(N)=O)NC(=O)[C@H](CCCCN)NC(=O)[C@@H](N)CCCCN)C(=O)N[C@@H](Cc1c[nH]c2ccccc12)C(=O)N[C@@H](CO)C(=O)NCC(=O)N[C@@H](CS)C(=O)NCC(=O)NCC(=O)N[C@@H](CC(N)=O)C(=O)N[C@@H](CO)C(=O)O` [PEP1] (H-KKQCEGFTWSGCGGNS-OH), the “Stability against hydrolysis by elastase-1” value on elastase-1 [2] was “not stable”. Moreover, the “Stability against hydrolysis by cathepsin L” value in series [3] is “hydrolyzed”.
Consider Cbz-Phe-Arg-{AMC}, for which the Michaelis constant (Km) in series [4] (Michaelis-Menten fit, Std. Error 0.4867 in its own column, read-out: Km, fit parameter value (Additional file 4B), cathepsin L) stood at 2.65 µM; in series [4] (substrate 1-20 µM, cathepsin L 1 ng, pH 5.5 buffer, Grafit 5, duplicate, read-out: Michaelis-Menten constant (Km) of substrate hydrolysis by cathepsin L) it was 2.65 µM.
What is called Ki is the equilibrium dissociation constant of an inhibitor or competing ligand from its target. `CC[C@H](C)[C@@H]1NC(=O)[C@H](CCCCN)NC(=O)[C@H](CCC(N)=O)NC(=O)[C@H](Cc2ccc(O)cc2)NC(=O)[C@@H](NC(=O)[C@H](CCCNC(=N)N)NC(=O)CNC(=O)[C@@H]2CCCN2)CSSC[C@@H](C(=O)NCC(=O)NCC(=O)O)NC(=O)CNC(=O)[C@H](CO)NC(=O)[C@H](Cc2c[nH]c3ccccc23)NC(=O)[C@H]([C@@H](C)O)NC(=O)[C@H](Cc2ccccc2)NC(=O)CNC(=O)[C@H](CCC(=O)O)NC(=O)[C@H](C(C)C)NC(=O)[C@H](CCC(N)=O)NC(=O)[C@H](CCCCN)NC(=O)[C@H](CCCCN)NC(=O)[C@H](CCCCN)NC(=O)[C@H](CCC(N)=O)NC(=O)[C@H](CC(N)=O)NC(=O)[C@H](Cc2ccc(O)cc2)NC(=O)[C@H](Cc2ccc(O)cc2)NC(=O)[C@H](Cc2ccccc2)NC(=O)[C@H](C)NC(=O)[C@@H]2CCCN2C1=O` [PEP2] (H-PGRCYQKIPAFYYNQKKKQVEGFTWSGCGG-OH; disulfide 4-28): in series [4] (Dixon plot, Z-FR-MCA 5.2 and 7.8 µM (2 and 3 Km), PEP2 0, 1.0, 2.5 and 5.0 µM, cathepsin L 1 ng, pH 5.5 buffer with DTT 6.25 mM, duplicate, read-out: Inhibition constant (Ki) for cathepsin L), the Ki worked out at 1960 nM. The “Stability against hydrolysis by elastase-1” value at elastase-1 [2] is listed as “not stable”. The “Stability against hydrolysis by cathepsin L” value in series [3] is “not degraded”.

B1: Kunitz-type serine protease inhibitor homolog dendrotoxin I (peptide)
chain: QPLRKLCILHRNPGRCYQKIPAFYYNQKKKQCEGFTWSGCGGNSNRFKTIEECRRTCIRK
notes: also called Kunitz-type peptide; Kunitz peptide
In turn, B1 returned a Ki in series [5] of 8000 nM.
